≈ marks a conversion by molar mass, not a printed value. Where “and” joins values, the source holds several entries; their conditions need not be identical. Equal entries are not always repeated.
What was measured:
[1] = tested on: HSV-1; settings: for mean % of reduction, herpes simplex virus: nontoxic dose of compound; for IC50: herpes simplex virus, plaque reduction
[2] = tested on: ED-43/SG-Feo (VYG) replicon of HCV genotype 4a; assay: Antiviral bioassay against ED-43/SG-Feo; assay type: cell-based; settings: nontoxic dose of compound
[3] = tested on: HAdV7; assay: Plaque reduction assay against adenovirus 7; assay type: cell-based, human adenovirus type 7; settings: nontoxic dose of compound
[4] = tested on: FRHK-4 cell line; assay: Cytotoxicity test on FRHK-4 cell line; assay type: cell-based; settings: hepatitis A virus HM 175 columns; host cells FRHK4
[5] = tested on: HAV HM175; assay: Plaque reduction assay against HAV HM175; assay type: cell-based, hepatitis A virus HM 175; settings: for IC50: hepatitis A virus HM 175, plaque reduction; for mean % of reduction, hepatitis A virus HM 175: nontoxic dose of compound
[6] = tested on: CBV4; assay: Plaque reduction assay against coxsackievirus B4; assay type: cell-based; settings: nontoxic dose of compound
[7] = tested on: Vero cell line; assay: Cytotoxicity test on Vero cell line; assay type: cell-based; settings: herpes simplex virus table; host cells Vero

SMILES | mean % of reduction, herpes simplex virus [1] | mean % of reduction, HCVcc genotype 4 [2] | mean % of reduction, adenovirus type 7 [3] | CC50 [4] | IC50 [5] | mean % of reduction, hepatitis A virus HM 175 [5] | mean % of reduction, coxsackievirus B4 [6] | IC50 [1] | CC50 [7]
Nc1nc(NS(=O)(=O)c2ccccc2)ncc1-c1nc2ccccc2s1 [5a, N-(4-Amino-5-(Benzo[d]thiazol-2-yl)pyrimidin-2-yl)benzenesulfonamide] | 20 ± 0.9% | 30 ± 0.8% | 20 ± 0.5% | 220 µg/mL (≈ 574 µM) | 100 µg/mL (≈ 261 µM) | – | – | – | –
Cc1ccc(S(=O)(=O)Nc2ncc(-c3nc4ccccc4s3)c(N)n2)cc1 [5b, N-(4-Amino-5-(benzo[d]thiazol-2-yl)pyrimidin-2-yl)-4-methylbenzenesulfonamide] | 40 ± 1.4% | 20 ± 0.8% | 20 ± 0.3% | – | – | 40 ± 1.0% | – | – | –
Cc1ccc(C(=O)CNc2nc(NS(=O)(=O)c3ccccc3)ncc2-c2nc3ccccc3s2)cc1 [9c, N-(5-(Benzo[d]thiazol-2-yl)-4-((2-(p-tolyl)-2-oxoethyl)amino)pyrimidin-2-yl)benzenesulfonamide] | 30 ± 1.0% | 10 ± 0.6% | 10 ± 0.2% | – | – | 40 ± 1.2% | – | – | –
Cc1ccc(-c2nc(N)nc(N)c2-c2nc3ccccc3s2)cc1 [13b, 5-(Benzo[d]thiazol-2-yl)-6-p-tolylpyrimidine-2,4-diamine] | 10 ± 0.1% | 10 ± 0.2% | 10 ± 0.1% | – | – | 10 ± 0.1% | 10 ± 0.1% | – | –
COc1ccc(-c2nc(N)nc(N)c2-c2nc3ccccc3s2)cc1 [13c, 5-(Benzo[d]thiazol-2-yl)-6-(4-methoxyphenyl)pyrimidine-2,4-diamine] | 10 ± 0.3% | 10 ± 0.1% | 10 ± 0.2% | – | – | 10 ± 0.1% | 10 ± 0.2% | – | –
Nc1nc(NS(=O)(=O)c2ccccc2)nc(-c2ccccc2)c1-c1nc2ccccc2s1 [14a, N-(4-Amino-5-(benzo[d]thiazol-2-yl)-6-phenylpyrimidin-2-yl)benzenesulfonamide] | 10 ± 0.2% | 10 ± 0.1% | 10 ± 0.2% | – | – | 10 ± 0.1% | 10 ± 0.1% | – | –
Nc1nc(NS(=O)(=O)c2ccccc2)nc(-c2ccc(F)cc2)c1-c1nc2ccccc2s1 [14b, N-(4-Amino-5-(benzo[d]thiazol-2-yl)-6-(4-fluorophenyl)pyrimidin-2-yl)benzenesulfonamide] | 70 ± 1.3% | 10 ± 0.6% | 30 ± 0.5% | 220 µg/mL (≈ 461 µM) | – | – | – | 66 µg/mL (≈ 138 µM) | 250 µg/mL (≈ 524 µM)
Nc1nc(NS(=O)(=O)c2ccccc2)nc(-c2ccc(Cl)cc2)c1-c1nc2ccccc2s1 [14c, N-(4-Amino-5-(benzo[d]thiazol-2-yl)-6-(4-chlorophenyl)pyrimidin-2-yl)benzenesulfonamide] | 30 ± 0.8% | 30 ± 0.7% | 30 ± 0.6% | 230 µg/mL (≈ 466 µM) | – | – | – | – | –
Cc1ccc(-c2nc(NS(=O)(=O)c3ccccc3)nc(N)c2-c2nc3ccccc3s2)cc1 [14d, N-(4-Amino-5-(benzo[d]thiazol-2-yl)-6-p-tolylpyrimidin-2-yl)benzenesulfonamide] | 10 ± 0.1% | 10 ± 0.1% | 10 ± 0.1% | – | – | 20 ± 0.2% | 30 ± 0.2% | – | –
COc1ccc(-c2nc(NS(=O)(=O)c3ccccc3)nc(N)c2-c2nc3ccccc3s2)cc1 [14e, N-(4-Amino-5-(benzo[d]thiazol-2-yl)-6-(4-methoxyphenyl)pyrimidin-2-yl)benzenesulfonamide] | 16.7 ± 0.1% | 10 ± 0.3% | 10 ± 0.1% | – | – | 13.3 ± 0.2% | 20 ± 0.2% | – | –
Cc1ccc(S(=O)(=O)Nc2nc(N)c(-c3nc4ccccc4s3)c(-c3ccccc3)n2)cc1 [14f, N-(4-Amino-5-(benzo[d]thiazol-2-yl)-6-phenylpyrimidin-2-yl)-4-methylbenzenesulfonamide] | 10 ± 0.1% | 10 ± 0.1% | 10 ± 0.2% | – | – | 10 ± 0.1% | 10 ± 0.2% | – | –
Cc1ccc(S(=O)(=O)Nc2nc(N)c(-c3nc4ccccc4s3)c(-c3ccc(F)cc3)n2)cc1 [14g, N-(4-Amino-5-(benzo[d]thiazol-2-yl)-6-(4-fluorophenyl)pyrimidin-2-yl)-4-methylbenzenesulfonamide] | 80% and 80 ± 2.4% | 20 ± 0.7% | 40 ± 0.8% | 230 µg/mL (≈ 468 µM) | 81 µg/mL (≈ 165 µM) | – | – | 50 µg/mL (≈ 102 µM) | 240 µg/mL (≈ 488 µM)
Cc1ccc(S(=O)(=O)Nc2nc(N)c(-c3nc4ccccc4s3)c(-c3ccc(Cl)cc3)n2)cc1 [14h, N-(4-Amino-5-(benzo[d]thiazol-2-yl)-6-(4-chlorophenyl)pyrimidin-2-yl)-4-methylbenzenesulfonamide] | 70% and 70 ± 2.0% | 20 ± 0.5% | 40 ± 0.7% | 200 µg/mL (≈ 394 µM) | 74 µg/mL (≈ 146 µM) | – | – | 71 µg/mL (≈ 140 µM) | 230 µg/mL (≈ 453 µM)
Cc1ccc(-c2nc(NS(=O)(=O)c3ccc(C)cc3)nc(N)c2-c2nc3ccccc3s2)cc1 [14i, N-(4-Amino-5-(benzo[d]thiazol-2-yl)-6-p-tolylpyrimidin-2-yl)-4-methylbenzenesulfonamide] | 10 ± 0.1% | 10 ± 0.2% | 10 ± 0.1% | – | – | 10 ± 0.2% | 10 ± 0.1% | – | –
COc1ccc(-c2nc(NS(=O)(=O)c3ccc(C)cc3)nc(N)c2-c2nc3ccccc3s2)cc1 [14j, N-(4-Amino-5-(benzo[d]thiazol-2-yl)-6-(4-methoxyphenyl)pyrimidin-2-yl)-4-methylbenzenesulfonamide] | 10 ± 0.1% | 10 ± 0.3% | 10 ± 0.1% | – | – | 10 ± 0.1% | 10 ± 0.1% | – | –
CSc1nc(NS(=O)(=O)c2ccccc2)nc(N)c1-c1nc2ccccc2s1 [17a, N-(4-Amino-5-(benzo[d]thiazol-2-yl)-6-(methylthio)pyrimidin-2-yl)benzenesulfonamide] | 10 ± 0.3% | 10 ± 0.1% | 10 ± 0.2% | – | – | 10 ± 0.2% | 10 ± 0.1% | – | –
CSc1nc(NS(=O)(=O)c2ccc(C)cc2)nc(N)c1-c1nc2ccccc2s1 [17b, N-(4-Amino-5-(benzo[d]thiazol-2-yl)-6-(methylthio)pyrimidin-2-yl)-4-methylbenzenesulfonamide] | 10 ± 0.2% | 10 ± 0.1% | 10 ± 0.1% | – | – | 10 ± 0.1% | 20 ± 0.2% | – | –
Nc1nc2c(ncn2COCCO)c(=O)[nH]1 [acyclovir, Acyclovir, reference compound] | – | – | – | – | – | – | – | – | 28 µg/mL (≈ 124 µM)
CC(=O)CNc1nc(NS(=O)(=O)c2ccccc2)ncc1-c1nc2ccccc2s1 [compound 7, N-(5-(Benzo[d]thiazol-2-yl)-4-((2-oxopropyl)amino)pyrimidin-2-yl)benzenesulfonamide] | 10 ± 0.5% | 10 ± 0.3% | 10 ± 0.2% | – | – | 10 ± 0.2% | 13.3 ± 0.4% | – | –

Source: publication PMC6990646 (ACS Omega, 2020)
